Assay results published in patent US20100291247A1, “OIL FORMULATIONS AND METHODS OF USE” (priority 2007, published 2010).

Assay: LC50 of vanillin MEC formulation (pathogen not named)
Format: in vivo
Conditions: ppm of Vanillin, applied as 15% MEC formulation; organism not given
From the text: The unit commonly used in the art to determine the effectiveness of the antipathogenic formulation is LC50. This number represents the concentration of formulation at which 50% of pathogens die.

## COc1cc(C=O)ccc1O [Vanillin, 4-Hydroxy-3-Methoxybenzaldehyde]
  LC50: 66 ppm
